Earlier results on 18 compounds are cited in article PMC8450225 (Bioorganic & Medicinal Chemistry, 2021).

For one data set, the target named is NS2B-NS3 pro. The settings on record: read-out: Ki (Reported).
Data set [1] relates to DENV2. Conditions: DENV2 viral replication assay.
Data set [2] deals with DENV2 pro.
For the next data set, the system named is DENV 1–4 pro. Conditions: range over DENV 1–4 pro.
Data set [3] relates to DENV2. The settings on record: DENV2 replication inhibition, BHK21 cells.
Data set [4] concerns DENV2. Conditions: antiviral activity against DENV2.
The next data set has as its system DENV. The settings on record: at 100 µM.
The test system of another data set is DENV NS2B-NS3 pro. Conditions: 50 µM substrate concentration and 50 µM compound concentration.
For a further data set, the system named is WNV NS2B-NS3 pro. The settings on record: 50 µM substrate concentration and 25 µM compound concentration.
Data set [5] relates to DENV2 pro. This is another data set of the same source.
The test system of data set [6] is DENV2 pro. This is another data set of the same source.
Data set [7] relates to DENV2 pro. The source holds these as a separate data set.
Data set [8] has as its system DENV2 pro. The source holds these as a separate data set.
The next data set concerns HuH-7 cells. Conditions: 1 µM, three days of incubation on HuH-7 cells, Alamar Blue.
The next data set deals with dengue serotype 2. Conditions: at 1 µM concentration, HuH-7 and K562 cell lines.

Read-outs that look alike come from different tables or passages of the source. Primed or numbered codes have the meaning given here. Bz′ = not defined here

As to Ac-RTSKKR-NH2, on NS2B-NS3 pro, the Ki was 12.1 µM. Turning to `O=C(Nc1nc2cc(O)c(O)cc2s1)c1ccccc1Sc1ccc(C(F)(F)F)cc1` [Compound 38], in the data set on DENV2 [1], the EC50 was more than 3 µM. Consider `CCc1ccc(NS(=O)(=O)c2ccc(N3C(=O)c4ccccc4C3=O)cc2)cc1` [Compound 46], for which the IC50 in the data set with DENV2 pro [2] is 48.2 µM. Consider `Cc1ccc(C(=O)c2cc(O)c(O)c([N+](=O)[O-])c2)cc1` [Compound 43], for which, in the data set on DENV 1–4 pro, the IC50 was 0.64 to 1.15 µM. Further, in the data set on DENV2 [3], the EC50 is 2.29 µM. With `CCCCC1C(C(=O)N(C)OC)C(c2ccccc2)CCN1C(=O)OC(C)(C)C` (stereo not shown) [Compound 51], the EC50 in the data set on DENV2 [4] was 2.4 µM.

As to “BZ-Ala-Lys-Arg-Arg-H ({Bz′}-AKRR-aldehyde; also: C-terminal aldehyde)”, the Ki on NS2B-NS3 pro is 5.3 µM. As to kaempferol-3-O-rutinoside [Compound 24], the DENV inhibition with DENV is recorded as 77.7%. Consider `CN(C)C(=O)COC(=O)Cc1ccc(OC(=O)c2ccc(NC(=N)N)cc2)cc1` [Camostat], for which the “Percentage inhibition of NS2B-NS3 pro, DENV” value with DENV NS2B-NS3 pro is 19.6%. Besides, the “Percentage inhibition of NS2B-NS3 pro, WNV” value in the data set on WNV NS2B-NS3 pro is 12.6%.

Bz-Arg-Lys-Phg-NH2 [reference compound]: in the data set on DENV2 pro [5] (starting tripeptide), the IC50 is 3.32 µM. In the case of `COc1cc2nc(NC(=O)c3ccccc3Sc3ccc(C(F)(F)F)cc3)sc2cc1OC` [Compound 40], the IC50 result in the data set on DENV2 pro [6] is “inactive”. As to `CC(=O)O[C@H]1CC(C)(C)C(=C=C/C(C)=C/C=C/C=C/C=C(C)/C=C2C=C(/C=C/[C@@]34O[C@]3(C)C[C@@H](O)CC4(C)C)C(=O)O/2)[C@](C)(O)C1` [Compound 35, peridinin], in the data set with DENV2 pro [7], the EC50 is 8.5 ± 0.41 µM. Consider Bz-Arg-Lys-(4-benzyloxy)-D-Phg-NH2, for which the IC50 with DENV2 pro [5] is 0.367 µM. As to `Cc1cc(O)c(S(=O)(=O)O)cc1Cc1cc(S(=O)(=O)O)c(O)c(Cc2cc(S(=O)(=O)O)c(O)cc2C)c1C` [Compound 60], the IC50 result in the data set with DENV2 pro [8] is “IC50 = 0.48 μg/mL”. On to “Bz-Arg-Lys-(4-CF3-benzyl ether)-D-Phg-NH2 [Compound 7]”, for which, in the data set with DENV2 pro [5], the IC50 is 0.069 µM.

Take `Cc1ccc(C2=NC(=O)/C(=C/c3cc(O)c(O)c(Br)c3)S2)cc1` [Compound 42]: the IC50 in the data set with DENV 1–4 pro was 2.94 to 4.06 µM. Further, in the data set on DENV2 [3], the EC50 is 6.9 ± 0.6 µM. As for `O=C(Nc1nc2cc(O)c(O)cc2s1)c1ccccc1Oc1ccc2cc(O)ccc2c1` [Compound 39], the IC50 with DENV2 pro [6] is 4.2 ± 0.44 µM. Take `O=C1c2c(O)ccc([N+](=O)[O-])c2C(=O)c2c([N+](=O)[O-])ccc(O)c21` [ARDP0006]: in the data set on HuH-7 cells, the cytotoxicity result is given as “non-cytotoxic”. Moreover, the “reduction of dengue viral titer” value with dengue serotype 2 was more than 1 log PFU/mL. In the case of `O=C(OC[C@H]1O[C@@H](OC(=O)c2cc(O)c(O)c(OC(=O)c3cc(O)c(O)c(O)c3)c2)[C@H](OC(=O)c2cc(O)c(O)c(OC(=O)c3cc(O)c(O)c(O)c3)c2)[C@@H](OC(=O)c2cc(O)c(O)c(OC(=O)c3cc(O)c(O)c(O)c3)c2)[C@@H]1OC(=O)c1cc(O)c(O)c(OC(=O)c2cc(O)c(O)c(O)c2)c1)c1cc(O)c(O)c(OC(=O)c2cc(O)c(O)c(O)c2)c1` [Compound 44], the concentration for half-maximal inhibition (IC50) with DENV 1–4 pro was 0.13 to 0.77 µM.
